Reference: patent US20250163048A1 (Tango Therapeutics, Inc., priority 2022, published 2025)
Read-outs that look alike come from different tables or passages of the source.

Assays:
MTAP-deleted cell line = assay: viability assay for the MTAP-deleted cell line; type: cell-based
[1] = system: HAP1 MTAP-intact cell line; assay: SDMA in-cell western assay, HAP1 MTAP-intact
[2] = system: HAP1 MTAP-deleted cell line; assay: SDMA in-cell western assay, HAP1 MTAP-deleted; conditions: for Hap1 MTAP intact/deleted ratio: IC50 ratio between HAP1 MTAP-intact and HAP1 MTAP-deleted cell line
[3] = Homo sapiens, HAP1, viability assay
[4] = Homo sapiens, HAP1, read-out: Hap1 MTAP intact IC50, SDMA in-cell western, HAP1 MTAP-intact cell line
[5] = Homo sapiens, HAP1, read-out: Hap1 MTAP deleted IC50, SDMA in-cell western, HAP1 MTAP-deleted cell line
[6] = Homo sapiens, HAP1, read-out: Hap1 MTAP deleted IC90, SDMA in-cell western, HAP1 MTAP-deleted cell line
[7] = viability assay, read-out: Hap1 MTAP deleted viability IC50
[8] = read-out: Hap1 MTAP intact IC50, SDMA in-cell western, HAP1 MTAP-intact cell line
[9] = read-out: Hap1 MTAP deleted IC50, SDMA in-cell western, HAP1 MTAP-deleted cell line
[10] = read-out: Hap1 MTAP deleted IC90, SDMA in-cell western, HAP1 MTAP-deleted cell line
[11] = Homo sapiens, HAP1, read-out: Hap1 MTAP intact IC50, SDMA in-cell western assay, HAP1 MTAP-intact cell line
[12] = Homo sapiens, HAP1, read-out: Hap1 MTAP deleted IC50, SDMA in-cell western assay, HAP1 MTAP-deleted cell line
[13] = Homo sapiens, HAP1, read-out: Hap1 MTAP deleted IC90, SDMA in-cell western assay, HAP1 MTAP-deleted cell line
[14] = Homo sapiens, HAP1, read-out: Hap1 MTAP intact IC50

| SMILES | IC50 [1, 4] [µM] | IC50 [2, 5] [µM] | IC90 [2, 6] [µM] | IC50 [1, 11] [µM] | IC50 [2, 12] [µM] | IC90 [2, 13] [µM] | IC50 (MTAP-deleted cell line; [3]) [µM] | Hap1 MTAP intact/deleted ratio ([2]; SDMA in-cell western) | Hap1 MTAP intact/deleted ratio ([2]; SDMA in-cell western assay) | further results |
| --- | --- | --- | --- | --- | --- | --- | --- | --- | --- | --- |
| C[C@H]1CC[C@H](c2ccc3sc(CC(C)(C)N(C)C)nc3c2)N(C(=O)C(=O)Nc2cncc3cn[nH]c23)C1 [Compound 122, 2-((2R,5S)-2-(2-(2-(dimethylamino)-2-methylpropyl)benzo[d]thiazol-5-yl)-5-methylpiperidin-1-yl)-2-oxo-N-(1H-pyrazolo[4,3-c]pyridin-7-yl)acetamide] | > 0.05 | < 0.005 | < 0.075 | – | – | – | < 0.1 | A (“A” indicates an IC50 ratio greater than or equal to 30 fold) | – | – |
| C[C@H]1CC[C@H](c2ccc3nn(C4CCN(C)C(C)(C)C4)cc3c2)N(C(=O)C(=O)Nc2cncc3cn[nH]c23)C1 (single isomer, unassigned) [Compound 20] | – | – | – | – | – | – | – | C (“C” indicates an IC50 ratio of less than 15 fold) | – | IC50 (MTAP-deleted cell line; [7]): < 0.1 µM; IC50 [1, 8]: 0.005 to 0.05 µM; IC50 [2, 9]: < 0.005 µM; IC90 [2, 10]: < 0.075 µM |
| C[C@H]1CC[C@H](c2ccc3sc(C4(CN(C)C)CC4)nc3c2)N(C(=O)C(=O)Nc2cncc3cn[nH]c23)C1 [Compound 60, 2-((2R,5S)-2-(2-(1-((dimethylamino)methyl)cyclopropyl)benzo[d]thiazol-5-yl)-5-methylpiperidin-1-yl)-2-oxo-N-(1H-pyrazolo[4,3-c]pyridin-7-yl)acetamide] | > 0.05 | < 0.005 | < 0.075 | – | – | – | < 0.1 | B (“B” indicates an IC50 ratio greater than or equal to 15 fold but lower than 30 fold) | – | – |
| C[C@H]1CC[C@H](c2ccc3sc(CC4CCN(C)CC4)nc3c2)N(C(=O)C(=O)Nc2cncc3cn[nH]c23)C1 [Compound 61, 2-((2R,5S)-5-methyl-2-(2-((1-methylpiperidin-4-yl)methyl)benzo[d]thiazol-5-yl)piperidin-1-yl)-2-oxo-N-(1H-pyrazolo[4,3-c]pyridin-7-yl)acetamide] | 0.005 to 0.05 | < 0.005 | < 0.075 | – | – | – | < 0.1 | B (“B” indicates an IC50 ratio greater than or equal to 15 fold but lower than 30 fold) | – | – |
| C[C@H]1CC[C@H](c2ccc3sc(CCN4CCCC4)nc3c2)N(C(=O)C(=O)Nc2cncc3[nH]ncc23)C1 [Compound 102, 2-((2R,5S)-5-methyl-2-(2-(2-(pyrrolidin-1-yl)ethyl)benzo[d]thiazol-5-yl)piperidin-1-yl)-2-oxo-N-(1H-pyrazolo[3,4-c]pyridin-4-yl)acetamide] | > 0.05 | < 0.005 | < 0.075 | – | – | – | < 0.1 | A (“A” indicates an IC50 ratio greater than or equal to 30 fold) | – | – |
| Nc1ncc(NC(=O)C(=O)N2[C@@H](c3ccccc3)CCC[C@H]2C(F)(F)F)c2[nH]ncc12 (racemic) [Compound 245, N-(4-Amino-2H-pyrazolo[4,3-c]pyridin-7-yl)-2-oxo-2-[rac-(2R,6S)-2-phenyl-6-(trifluoromethyl)-1-piperidyl]acetamide] | – | – | – | > 0.05 | < 0.005 | < 0.075 | < 0.1 | – | A (“A” indicates an IC50 ratio greater than or equal to 30 fold) | – |
| C[C@H]1CC[C@H](c2ccc3cn([C@@H]4CCN(C)C[C@H]4C)nc3c2)N(C(=O)C(=O)Nc2cncc3cn[nH]c23)C1 (single isomer, unassigned) [Compound 159] | > 0.05 | < 0.005 | < 0.075 | – | – | – | < 0.1 | B (“B” indicates an IC50 ratio greater than or equal to 15 fold but lower than 30 fold) | – | – |
| CC1OCc2c(NC(=O)C(=O)N3C[C@@H](C)CC[C@@H]3c3ccc4scnc4c3)cnc(N)c21 (single isomer, unassigned) [Compound 287] | – | – | – | – | – | < 0.075 | – | – | B (“B” indicates an IC50 ratio greater than or equal to 15 fold but lower than 30 fold) | IC50 (MTAP-deleted cell line; [7]): < 0.1 µM; IC50 [1, 14]: > 0.05 µM; IC50 ([2]; read-out: Hap1 MTAP deleted IC50, SDMA in-cell western assay, HAP1 MTAP-deleted cell line): < 0.005 µM |
| C[C@H]1CC[C@H](c2ccc3scnc3c2)N(C(=O)C(=O)Nc2cnc(N)c3[nH]ncc23)C1 [Compound 174, N-(7-amino-1H-pyrazolo[3,4-c]pyridin-4-yl)-2-((2R,5S)-2-(benzo[d]thiazol-5-yl)-5-methylpiperidin-1-yl)-2-oxoacetamide] | – | < 0.005 | < 0.075 | – | – | – | < 0.1 | C (“C” indicates an IC50 ratio of less than 15 fold) | – | IC50 [1, 14]: 0.005 to 0.05 µM |
| C[C@H]1CC[C@H](c2ccc3sc([C@H]4CCN(C)C[C@H]4C)nc3c2)N(C(=O)C(=O)Nc2cncc3cn[nH]c23)C1 (relative stereo) [Compound 106, 2-oxo-N-(1H-pyrazolo[4,3-c]pyridin-7-yl)-2-[(2R,5S)-5-methyl-2-[2-[rel-(3S,4S)-1,3-dimethyl-4-piperidyl]-1,3-benzothiazol-5-yl]-1-piperidyl]acetamide] | – | – | – | – | – | – | – | C (“C” indicates an IC50 ratio of less than 15 fold) | – | IC50 (MTAP-deleted cell line; [7]): < 0.1 µM; IC50 [1, 8]: 0.005 to 0.05 µM; IC50 [2, 9]: < 0.005 µM; IC90 [2, 10]: < 0.075 µM |

More lines, main results first:

| IC50 [1, 4] [µM] | IC50 [2, 5] [µM] | IC90 [2, 6] [µM] | IC50 [1, 11] [µM] | IC50 [2, 12] [µM] | IC90 [2, 13] [µM] | SMILES | IC50 (MTAP-deleted cell line; [3]) [µM] | Hap1 MTAP intact/deleted ratio ([2]; SDMA in-cell western) | Hap1 MTAP intact/deleted ratio ([2]; SDMA in-cell western assay) | further results |
| --- | --- | --- | --- | --- | --- | --- | --- | --- | --- | --- |
| > 0.05 | > 0.05 | > 0.125 | – | – | – | CO[C@H]1C[C@H](c2ccc(F)cc2)N(C(=O)C(=O)Nc2cnc(N)c3cn[nH]c23)C[C@H]1C (single isomer, unassigned) [Compound 38] | 0.1 to 1 | C (“C” indicates an IC50 ratio of less than 15 fold) | – | – |
| > 0.05 | > 0.05 | > 0.125 | – | – | – | Cc1ccc([C@H]2CC[C@@H](C)CN2C(=O)C(=O)Nc2cnc(N)c3cn[nH]c23)cn1 [Compound 135, N-(4-amino-1H-pyrazolo[4,3-c]pyridin-7-yl)-2-oxo-2-[(2R,5R)-5-methyl-2-(6-methyl-3-pyridyl)-1-piperidyl]acetamide] | > 1 | C (“C” indicates an IC50 ratio of less than 15 fold) | – | – |
| – | – | – | 0.005 to 0.05 | < 0.005 | < 0.075 | CC(C)n1cc2cc([C@H]3CC[C@H](C)CN3C(=O)C(=O)Nc3cnc(N)c4cn[nH]c34)ccc2n1 (racemic) [Compound 231, N-(4-Amino-1H-pyrazolo[4,3-c]pyridin-7-yl)-2-oxo-2-[rac-(2R,5S)-2-(2-isopropylindazol-5-yl)-5-methyl-1-piperidyl]acetamide] | < 0.1 | – | A (“A” indicates an IC50 ratio greater than or equal to 30 fold) | – |
| – | – | – | – | < 0.005 | < 0.075 | [2H]c1c([2H])c([2H])c([C@H]2CC[C@H](C)CN2C(=O)C(=O)Nc2cnc(N)c3cn[nH]c23)c([2H])c1[2H] (single isomer, unassigned) [Compound 268] | < 0.1 | – | – | IC50 [1, 14]: 0.005 to 0.05 µM |
| – | – | – | > 0.05 | 0.005 to 0.05 | 0.075 to 0.125 | C[C@@H]1CCCN(C(=O)C(=O)Nc2cnc(N)c3cn[nH]c23)[C@H]1c1ccccc1 (racemic) [Compound 258, N-(4-Amino-1H-pyrazolo[4,3-c]pyridin-7-yl)-2-(3-methyl-2-phenyl-1-piperidyl)-2-oxo-acetamide] | 0.1 to 1 | – | A (“A” indicates an IC50 ratio greater than or equal to 30 fold) | – |
| > 0.05 | < 0.005 | < 0.075 | – | – | – | C[C@H]1CC[C@H](c2cc(F)c(F)c(F)c2)N(C(=O)C(=O)Nc2cnc(N)c3cn[nH]c23)C1 [Compound 18, N-(4-amino-1H-pyrazolo[4,3-c]pyridin-7-yl)-2-((2R,5S)-5-methyl-2-(3,4,5-trifluorophenyl)piperidin-1-yl)-2-oxoacetamide] | < 0.1 | A (“A” indicates an IC50 ratio greater than or equal to 30 fold) | – | – |
| – | – | – | > 0.05 | < 0.005 | < 0.075 | COc1cc([C@H]2CC[C@H](C)CN2C(=O)C(=O)Nc2cnc(N)c3cn[nH]c23)cc(C)n1 [Compound 219, N-(4-Amino-1H-pyrazolo[4,3-c]pyridin-7-yl)-2-oxo-2-[(2R,5S)-2-(2-methoxy-6-methyl-4-pyridyl)-5-methyl-1-piperidyl]acetamide] | < 0.1 | – | A (“A” indicates an IC50 ratio greater than or equal to 30 fold) | – |
| – | – | – | > 0.05 | < 0.005 | > 0.125 | C[C@H]1CC[C@H]([C@@H]2CCOC2)N(C(=O)C(=O)Nc2cnc(N)c3cn[nH]c23)C1 (single isomer, unassigned) [Compound 237] | 0.1 to 1 | – | A (“A” indicates an IC50 ratio greater than or equal to 30 fold) | – |
| – | – | – | > 0.05 | 0.005 to 0.05 | > 0.125 | C[C@H]1CC[C@H](C2(C(F)(F)F)CC2)N(C(=O)C(=O)Nc2cnc(N)c3cn[nH]c23)C1 (racemic) [Compound 226, N-(4-Amino-1H-pyrazolo[4,3-c]pyridin-7-yl)-2-oxo-2-[rac-(2R,5S)-5-methyl-2-[1-(trifluoromethyl)cyclopropyl]-1-piperidyl]acetamide] | 0.1 to 1 | – | B (“B” indicates an IC50 ratio greater than or equal to 15 fold but lower than 30 fold) | – |
